Measurements published in ChEMBL document CHEMBL1201862, “PubChem BioAssay data set” (2004).
Activity calls are given as the source filed them.

How the values were obtained:
[1] = growth suppression of PTEN-null colon cells, dose response, cell-based, HCT116 PTEN knockout (AID 1047); format: functional;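 note: HCT116 colon tumor cells with PTEN knocked out; cells exposed to compound for 60 hours before readout; potency for loss of cell viability measured by luminescence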
[2] = growth suppression of beta-catenin-knockout colon cells, dose response, cell-based, HCT116, human colon tumor (AID 1045); format: functional;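 note: HCT116 colon tumor cells with beta catenin knocked out; cells exposed to compound for 60 hours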
[3] = biological target: Cytochrome P450 3A4 (Homo sapiens, UniProt P08684);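 note: CYP3A4 tested as one member of a cytochrome P450 panel screen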
[4] = biological target: Cytochrome P450 2C19 (Homo sapiens, UniProt P33261); test: Cytochrome panel assay with activity outcomes. Panel member name: p450-cyp2c19 Compounds with AC50 equal or less than 10 uM are considered active; format: functional; settings: read-out: AC50
[5] = inhibitors of clade B AD8 Env fusion, dose response, cell-based, cherry-pick (AID 652062); format: functional;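 note: luciferase signal from cell-cell fusion driven by HIV-1 clade B AD8 Env; potency is for inhibitors of fusion seen as a drop in luminescence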
[6] = C. albicans growth with fluconazole, confirmation, fluorescence, retest (AID 2467); format: functional, cell-based
[7] = NIH-3T3 fibroblast cytotoxicity, dose response, cytotoxicity control, cell-based, fluorescence, Alamar Blue, secondary assay (AID 2327); format: functional;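 note: NIH-3T3 mouse fibroblasts cultured with fluconazole at 8 µg/mL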
[8] = biological target: Cytochrome P450 2C9 (Homo sapiens, UniProt P11712)
[9] = Luminescence Cell-Based Dose Confirmation HTS to Identify Inhibitors of Platelet Dense Granule Release. [Related pubchem assays: 1663 (Primary HTS), 1678 (Summary of Project)]; format: functional
[10] = biological target: Luciferin 4-monooxygenase (Photinus pyralis, UniProt P08659); test: firefly luciferase enzyme inhibitors, dose response, biochemical, luminescence (AID 1891)
[11] = biological target: Cytochrome P450 2D6 (Homo sapiens, UniProt P10635);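 note: CYP2D6 member of a cytochrome P450 panel assay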
[12] = biological target: T1, Streptokinase A (Streptococcus pyogenes serotype M1, UniProt P10520); test: S. pyogenes streptokinase expression inhibitors, potency, dose response, plasminogen activation absorbance, OD405 (AID 1914); format: functional, Streptococcus pyogenes M1 GAS;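 note: secreted streptokinase activity via plasminogen activation per viability signal from cell pellet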
T1 sequence (P10520 whole entry): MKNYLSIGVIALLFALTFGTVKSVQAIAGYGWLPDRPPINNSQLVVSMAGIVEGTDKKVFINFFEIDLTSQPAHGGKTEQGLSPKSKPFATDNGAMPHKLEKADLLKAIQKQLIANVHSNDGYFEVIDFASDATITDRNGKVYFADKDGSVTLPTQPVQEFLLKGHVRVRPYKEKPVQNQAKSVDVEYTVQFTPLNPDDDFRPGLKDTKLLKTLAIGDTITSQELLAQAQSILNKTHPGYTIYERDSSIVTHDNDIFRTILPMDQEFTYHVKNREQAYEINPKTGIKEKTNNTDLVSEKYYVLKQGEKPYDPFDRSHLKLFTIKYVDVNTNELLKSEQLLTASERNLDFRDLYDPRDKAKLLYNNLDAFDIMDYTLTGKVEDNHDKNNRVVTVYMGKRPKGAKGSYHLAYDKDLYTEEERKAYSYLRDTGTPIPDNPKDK

[13] = tested on: BJ; test: cells; format: functional, cell-based; settings: Homo sapiens
[14] = inhibitors of firefly luciferase expression or activity, dose response, H4 neuroglioma cells, luminescence (AID 1990); format: functional, cell-based
[15] = tested on: BJ; test: cytotoxicity toward BJ-TERT fibroblasts, dose response, cell-based, RAS-independent, luminescence (AID 1933); format: functional; settings: Homo sapiens
[16] = tested on: Streptococcus sp. 'group A'; test: growth inhibition of control SK(-) GAS strain, dose response, counter-screen for streptokinase expression inhibitor project, luminescence, kanamycin, BacTiterGlo, confirmation (AID 1900); format: functional, organism-based
[17] = Luminescence Cell-Based Dose Response HTS to Identify Inhibitors of 5'UTR Stem-Loop Driven Prion Protein mRNA Translation in H4 Neuroglioblastoma Cells. [Related pubchem assays: 1827 (Project Summary), 1813 (Primary HTS)]; format: functional
[18] = tested on: Streptococcus; test: Group A Streptococcus viability loss, dose response, counter-screen for streptokinase expression inhibitor project, luminescence, BacTiterGlo (AID 1915); format: functional, organism-based;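 note: potency for reduction of bacterial viability or growth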
[19] = cytotoxicity toward DRD oncogenic fibroblasts, dose response, cell-based, non-viral oncogenic, luminescence (AID 1934); format: functional; settings: Homo sapiens
[20] = inhibitors of SNCA 5'UTR-driven reporter translation, confirmation, H4 neuroglioma cells, luminescence (AID 1988); format: functional, cell-based
[21] = tested on: BJ; test: cytotoxicity toward BJ-TERT-LT-ST fibroblasts, dose response, cell-based, RAS-independent, luminescence (AID 1935); format: functional; settings: Homo sapiens;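 note: BJ fibroblasts immortalized with TERT plus LT and ST oncogenes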
[22] = inhibitors of intracellular T. cruzi replication, confirmation, NIH3T3 host cells, beta-gal luminescence (AID 2044); format: functional, cell-based;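 note: intracellular parasites grown in NIH/3T3 mouse fibroblasts as host cells; luminescent beta-galactosidase reporter signal from transgenic T. cruzi replicating inside host cells; inhibitors lower the luminescence signal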
[23] = cytotoxicity toward NIH3T3 fibroblasts, dose response, counter-screen, cell-based, ATP luminescence, mouse fibroblasts (AID 2010); format: functional;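 note: cells exposed to compound for about 90 hours before reading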
[24] = biological target: T2, Leucine aminopeptidase (Plasmodium falciparum 3D7, UniProt Q8IL11); test: P. falciparum M17LAP inhibitors, primary screen, biochemical, fluorogenic H-Leu-NHMec substrate, 1536-well (AID 1619); format: functional
T2 sequence (Q8IL11 whole entry): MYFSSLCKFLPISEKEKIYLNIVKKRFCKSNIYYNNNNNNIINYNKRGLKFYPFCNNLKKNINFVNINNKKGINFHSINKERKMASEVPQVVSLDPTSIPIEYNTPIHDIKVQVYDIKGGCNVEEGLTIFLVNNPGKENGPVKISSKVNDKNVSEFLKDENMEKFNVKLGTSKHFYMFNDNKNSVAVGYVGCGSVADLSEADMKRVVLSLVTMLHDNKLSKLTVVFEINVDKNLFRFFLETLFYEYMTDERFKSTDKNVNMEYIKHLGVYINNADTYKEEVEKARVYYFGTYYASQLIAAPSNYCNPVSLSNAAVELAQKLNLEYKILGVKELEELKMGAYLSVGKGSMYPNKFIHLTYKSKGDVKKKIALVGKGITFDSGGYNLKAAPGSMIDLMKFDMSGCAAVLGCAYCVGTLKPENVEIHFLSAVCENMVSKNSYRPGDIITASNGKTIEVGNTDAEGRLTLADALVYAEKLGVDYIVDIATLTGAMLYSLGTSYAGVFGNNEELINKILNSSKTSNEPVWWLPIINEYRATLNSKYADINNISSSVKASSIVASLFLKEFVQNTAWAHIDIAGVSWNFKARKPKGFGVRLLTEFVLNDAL

[25] = biological target: Paired box protein Pax-8 (Homo sapiens, UniProt Q06710); test: inhibitors of PAX8-driven TPO luciferase reporter, dose response, RMG-I cells, cherry-pick (AID 687027); format: functional, cell-based;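 note: luciferase reporter driven by Pax8 target thyroperoxidase promoter measured by SteadyGlo luminescence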
[26] = Luminescence Cell-Based Dose Retest to Confirm Inhibitors of Cancer Stem Cells. [Related pubchem assays (depositor defined):AID2717, AID2721]; format: functional; settings: Homo sapiens

Sequence of Cytochrome P450 3A4 (P08684 whole entry): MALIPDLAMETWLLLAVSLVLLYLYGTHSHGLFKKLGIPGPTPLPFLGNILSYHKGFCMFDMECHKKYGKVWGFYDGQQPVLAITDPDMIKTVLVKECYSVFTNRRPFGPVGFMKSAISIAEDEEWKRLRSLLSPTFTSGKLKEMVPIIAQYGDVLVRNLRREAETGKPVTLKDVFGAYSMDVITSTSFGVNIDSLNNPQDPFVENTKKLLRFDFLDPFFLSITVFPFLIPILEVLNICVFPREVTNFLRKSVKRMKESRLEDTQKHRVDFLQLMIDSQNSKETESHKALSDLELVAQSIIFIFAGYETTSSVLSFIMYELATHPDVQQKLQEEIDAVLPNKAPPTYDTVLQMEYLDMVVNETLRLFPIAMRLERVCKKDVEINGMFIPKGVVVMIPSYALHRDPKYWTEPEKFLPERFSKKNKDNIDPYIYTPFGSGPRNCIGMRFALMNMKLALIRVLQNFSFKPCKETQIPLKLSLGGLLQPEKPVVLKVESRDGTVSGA
Sequence of Cytochrome P450 2C9 (P11712 whole entry): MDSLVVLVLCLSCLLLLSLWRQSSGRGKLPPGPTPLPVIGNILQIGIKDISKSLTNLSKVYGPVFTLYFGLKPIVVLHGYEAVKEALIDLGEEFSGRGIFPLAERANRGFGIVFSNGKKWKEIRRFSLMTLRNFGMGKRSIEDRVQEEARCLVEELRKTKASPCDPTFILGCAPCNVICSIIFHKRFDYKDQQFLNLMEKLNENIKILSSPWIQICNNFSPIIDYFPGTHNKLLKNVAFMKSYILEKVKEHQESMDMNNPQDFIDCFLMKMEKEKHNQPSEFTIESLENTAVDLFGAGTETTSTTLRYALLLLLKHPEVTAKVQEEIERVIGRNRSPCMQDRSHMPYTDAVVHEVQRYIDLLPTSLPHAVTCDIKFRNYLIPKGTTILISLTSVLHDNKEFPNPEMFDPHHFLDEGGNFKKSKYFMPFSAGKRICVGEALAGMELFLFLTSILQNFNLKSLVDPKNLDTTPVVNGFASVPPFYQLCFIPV
Sequence of Cytochrome P450 2C19 (P33261 whole entry, the tested form may be a part): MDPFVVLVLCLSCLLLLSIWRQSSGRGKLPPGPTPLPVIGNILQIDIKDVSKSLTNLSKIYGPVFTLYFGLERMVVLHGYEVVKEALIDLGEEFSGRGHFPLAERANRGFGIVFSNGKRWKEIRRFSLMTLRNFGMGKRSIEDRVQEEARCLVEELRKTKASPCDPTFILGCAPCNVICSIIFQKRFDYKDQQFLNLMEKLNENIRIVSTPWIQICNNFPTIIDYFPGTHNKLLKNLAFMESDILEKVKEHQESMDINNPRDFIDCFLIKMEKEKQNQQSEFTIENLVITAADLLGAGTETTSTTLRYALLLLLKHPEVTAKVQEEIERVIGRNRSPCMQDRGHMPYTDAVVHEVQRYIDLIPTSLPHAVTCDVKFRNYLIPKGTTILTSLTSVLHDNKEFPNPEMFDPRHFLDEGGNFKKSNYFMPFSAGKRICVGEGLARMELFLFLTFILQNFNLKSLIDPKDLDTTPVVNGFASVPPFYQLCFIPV
Sequence of Cytochrome P450 2D6 (P10635 whole entry): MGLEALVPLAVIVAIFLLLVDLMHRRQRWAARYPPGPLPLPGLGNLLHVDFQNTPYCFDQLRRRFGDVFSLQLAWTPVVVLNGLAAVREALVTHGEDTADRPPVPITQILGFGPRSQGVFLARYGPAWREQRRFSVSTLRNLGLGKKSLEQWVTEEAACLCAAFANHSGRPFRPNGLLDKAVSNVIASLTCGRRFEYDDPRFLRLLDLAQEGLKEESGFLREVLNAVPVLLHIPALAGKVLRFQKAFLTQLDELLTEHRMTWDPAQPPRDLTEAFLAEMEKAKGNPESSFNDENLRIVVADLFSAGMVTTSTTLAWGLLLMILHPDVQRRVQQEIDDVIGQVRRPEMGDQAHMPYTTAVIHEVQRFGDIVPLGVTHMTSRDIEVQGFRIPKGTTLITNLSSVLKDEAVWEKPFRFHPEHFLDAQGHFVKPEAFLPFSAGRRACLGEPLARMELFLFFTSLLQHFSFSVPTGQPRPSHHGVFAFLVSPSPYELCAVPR
Sequence of Paired box protein Pax-8 (Q06710 whole entry): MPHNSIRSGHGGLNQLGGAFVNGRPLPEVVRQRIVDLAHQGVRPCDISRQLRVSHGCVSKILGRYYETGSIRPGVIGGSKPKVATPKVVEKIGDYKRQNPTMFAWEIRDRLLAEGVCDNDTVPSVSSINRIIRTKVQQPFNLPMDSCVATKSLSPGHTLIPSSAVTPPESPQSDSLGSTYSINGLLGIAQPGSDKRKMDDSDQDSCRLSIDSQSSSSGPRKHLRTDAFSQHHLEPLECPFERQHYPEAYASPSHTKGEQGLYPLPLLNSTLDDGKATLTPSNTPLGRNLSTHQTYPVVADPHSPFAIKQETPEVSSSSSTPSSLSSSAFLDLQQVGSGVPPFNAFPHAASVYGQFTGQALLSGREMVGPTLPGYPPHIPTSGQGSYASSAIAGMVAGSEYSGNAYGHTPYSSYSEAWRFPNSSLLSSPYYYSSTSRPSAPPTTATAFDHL
Sequence of Luciferin 4-monooxygenase (P08659 whole entry): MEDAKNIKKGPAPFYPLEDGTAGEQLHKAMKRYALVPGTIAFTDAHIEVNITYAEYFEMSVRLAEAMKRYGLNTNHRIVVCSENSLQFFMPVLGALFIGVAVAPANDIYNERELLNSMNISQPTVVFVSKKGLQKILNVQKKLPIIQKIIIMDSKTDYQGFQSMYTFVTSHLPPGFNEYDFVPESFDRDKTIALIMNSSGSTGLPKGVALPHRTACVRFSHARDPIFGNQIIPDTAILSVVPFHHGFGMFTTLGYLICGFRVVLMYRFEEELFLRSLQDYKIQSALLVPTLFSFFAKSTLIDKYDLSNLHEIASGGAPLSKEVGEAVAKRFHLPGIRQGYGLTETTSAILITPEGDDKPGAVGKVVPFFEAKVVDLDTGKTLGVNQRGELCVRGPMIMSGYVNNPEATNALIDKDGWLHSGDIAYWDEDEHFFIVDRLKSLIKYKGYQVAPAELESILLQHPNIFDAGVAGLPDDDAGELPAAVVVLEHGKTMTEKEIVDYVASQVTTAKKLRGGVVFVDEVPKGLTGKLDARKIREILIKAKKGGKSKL

S=C(Nc1ccccn1)c1ccccn1
EC50 [1]: 5.48 µM (active)
EC50 [2]: 5.37 µM (active)

C[C@H](NC[C@H](O)CP(=O)(O)CC1CCCCC1)c1ccc(Cl)c(Cl)c1
AC50 [3]: 31.6 µM (inconclusive)

C[C@@H]1CCCN(CP(=O)(c2ccccc2)c2ccccc2)C1
AC50 [4]: 0.126 µM (inconclusive)
AC50 [3]: 3.98 µM (inconclusive)

Cc1ccc(-n2nnnc2SCn2nnc3ccccc3c2=O)c(C)c1
AC50 [5]: 30.1 µM (active)

COC(=O)[C@H]1C[C@@H]1[C@H](NC(=O)OCc1ccccc1)c1ccccc1
AC50 [3]: 25.1 µM (inconclusive)

Cn1c(=O)c(C(=O)NCCc2ccccc2)c(O)c2ccccc21
EC50 [6]: > 38 µM (not active)
EC50 [7]: > 150 µM (inactive)

COC(=O)N1CCC[C@@]2(CCN(C(=O)Nc3ccc(OC)cc3)C2)C1
AC50 [8]: 20 µM (inconclusive)
AC50 [3]: 10 µM (inconclusive)

CCn1c(O)c(N=NC(=O)c2ccc(CSc3nncn3C)cc2)c2ccccc21
EC50 [9]: > 112 µM (not active)
EC50 [10]: > 112 µM (not active)

O=C(c1ccncc1)N1CCC[C@@]2(CCN(c3ncccn3)C2)C1
AC50 [8]: 20 µM (inconclusive)
AC50 [4]: 25.1 µM (inconclusive)
AC50 [3]: 15.8 µM (inconclusive)

CCCCCCN1C=CC(=C/C=C(\C#N)C(=O)OCC)C=C1
AC50 [3]: 15.8 µM (inconclusive)
AC50 [11]: 14.1 µM (inconclusive)

CSc1nc(Oc2ccc3ccccc3c2)c2sccc2n1
EC50 [12]: 39.1 µM (active)
EC50 [13]: 52.3 µM (active)
EC50 [14]: 12.9 µM (active)
EC50 [15]: 12.5 µM (active)
EC50 [16]: 34.3 µM (active)
EC50 [17]: > 120 µM (not active)
EC50 [18]: > 150 µM (not active)
EC50 [19]: 12.8 µM (inconclusive)
EC50 [20]: 8.16 µM (active)
EC50 [21]: 13.6 µM (inconclusive)

O=C(c1ccccc1)c1ccc(NCCCn2ccnc2)c([N+](=O)[O-])c1
EC50 [13]: > 150 µM (not active)
EC50 [15]: > 150 µM (not active)
EC50 [19]: 147 µM (active)
EC50 [21]: > 150 µM (inconclusive)
EC50 [22]: 1.8 µM (active)
EC50 [23]: > 60 µM (not active)

CCC(CC)C(=O)Nc1ccc(C)c(O)c1
AC50 [3]: 4.47 µM (inconclusive)

CCn1c2ccccc2c2cc(NC(=O)CNCc3ccccc3OC)ccc21
EC50 [13]: > 150 µM (inconclusive)
EC50 [15]: 7.54 µM (inconclusive)
EC50 [19]: 4.21 µM (active)
EC50 [21]: 41.6 µM (inconclusive)

Cc1cccc(C)c1Nc1nnc(SC(C)C(=O)Nc2c(C)n(C)n(-c3ccccc3)c2=O)s1 (centres undefined)
IC50 [24]: 13.5 µM (active)

COc1ccc(-c2cc(-c3ccccc3)c(C#N)c(S(C)(=O)=O)n2)cc1
EC50 [1]: 7.91 µM (active)
EC50 [2]: 5.07 µM (active)
AC50 [25]: 6.98 µM (active)

CCOc1cc(CNCCO)cc(Br)c1OCc1ccc(Cl)cc1Cl
EC50 [1]: 4.89 µM (active)
AC50 [26]: 6.75 µM (active)
EC50 [2]: 4.69 µM (active)

C=CCn1c(=S)[nH]c2sc3c(c2c1=O)CCC3
IC50 [24]: 46.2 µM (active)

O=C(O)c1cccc(CN2C(=O)SC(Nc3ccccc3)C2=O)c1 (centres undefined)
IC50 [24]: 34.3 µM (active)

Cc1noc(C)c1C(=O)N1CCC2(CCCN(Cc3ccccc3)C2)CC1
AC50 [3]: 25.1 µM (inconclusive)
